biological target: CCR9 (Homo sapiens (Human), UniProt P51686); assay: FLIPR calcium flux assay using MOLT4 cells, TECK stimulation; format: cell-based; conditions: MOLT4 cells (human T-cell line)
Description: Biological Activity: FLIPR Assay Using MOLT4 Cells
A calcium flux assay was used to determine the ability of the compounds to interfere with the binding between CCR9 and its chemokine ligand (TECK) in MOLT4 cells (a human T-cell line). MOLT4 cells were seeded (100,000 cells/well) in corning cell culture plates (Cat #3603) in assay buffer (1×HBSS, 20 mM HEPES) containing 2.5 mM Probenecid. The plate was centrifuged at 1200 rpm for 3 minutes and incubated at 37° C./5% CO2 for 2 hours. A 0.3× Fluo-4 NW calcium dye was prepared in assay buffer containing 5 mM Probenecid and stored in the dark. Each well was loaded with 25 μl of 0.3× Fluo-4 NW calcium dye and incubated at 37° C./5% CO2 for 60 minutes and then at room temperature for 30 minutes. A half-log serially diluted concentration response curve was prepared at a 4× concentration for each (10 μM-0.1 nM final assay concentration) and 25 μL of the compound then transferred to the cells (100 μL final volume) for 60 minutes prior to stimulation (30 minutes at 37° C./5% CO2 and 30 minutes at room temperature). […] The increased in intracellular calcium levels was measured with the FLIPR instrument. The potency of the compound as CCR9 antagonist was calculated as an IC50 using GraphPad Prism software (variable slope four parameter). The Ki of the compound was determined from the IC50 values using the following equation. IC50/1+(Agonist (TECK) conc. used in assay/EC50 of agonist (TECK) generated on day of experiment) Ki calculation: […]

Sequence of CCR9 (P51686 whole entry): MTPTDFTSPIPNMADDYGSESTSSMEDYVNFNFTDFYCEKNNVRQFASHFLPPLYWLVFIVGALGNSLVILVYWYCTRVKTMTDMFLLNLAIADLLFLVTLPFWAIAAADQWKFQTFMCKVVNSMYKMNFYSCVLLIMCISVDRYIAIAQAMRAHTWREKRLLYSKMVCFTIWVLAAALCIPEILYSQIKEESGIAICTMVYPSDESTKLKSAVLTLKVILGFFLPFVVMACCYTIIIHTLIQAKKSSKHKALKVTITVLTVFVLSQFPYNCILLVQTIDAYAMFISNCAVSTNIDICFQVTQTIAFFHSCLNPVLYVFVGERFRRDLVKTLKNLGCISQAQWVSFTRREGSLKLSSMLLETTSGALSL

Ki [nM]	SMILES
568	Cc1ccc(NS(=O)(=O)c2ccc(C(F)(F)F)cc2)c2c1C(=O)N(Cc1cccnc1)C2=O [Compound 161]
224	N#Cc1cccc(N2C(=O)c3c(Cl)ccc(NS(=O)(=O)c4ccc(OC(F)F)cc4)c3C2=O)c1 [Compound 124]
1360	N#Cc1cccc(N2C(=O)c3cccc(NS(=O)(=O)c4ccc(OC(F)(F)F)cc4)c3C2=O)c1 [Compound 40]
54	COc1cnc(N2C(=O)c3c(Cl)ccc(NS(=O)(=O)c4ccc(C(C)(C)C)cc4)c3C2=O)cc1C [Compound 268]
1550	CC(C)(C)c1cccc(S(=O)(=O)Nc2cccc3c2C(=O)N(Cc2cccnc2)C3=O)c1 [Compound 14]
1210	CC(C)(C)c1ccc(S(=O)(=O)Nc2cccc3c2C(=O)N(c2ccc(C#N)cc2)C3=O)cc1 [Compound 36]
44	CCOc1cccc(N2C(=O)c3c(Cl)ccc(NS(=O)(=O)c4ccc(C(C)(C)C)cc4)c3C2=O)[n+]1[O-] [Compound 210]
184	CC(C)(C)c1ccc(S(=O)(=O)Nc2ccc(Cl)c3c2C(=O)N(CCc2ccc[n+]([O-])c2)C3=O)cc1 [Compound 117, 3-(2-(4-(4-(tert-butyl)phenylsulfonamido)-7-chloro-1,3-dioxoisoindolin-2-yl)ethyl)pyridine 1-oxide]
175	N#Cc1cccc(N2C(=O)c3c(Cl)ccc(NS(=O)(=O)c4ccc(OC(F)(F)F)cc4)c3C2=O)c1 [Compound 122]
33	CC(C)(C)c1ccc(S(=O)(=O)Nc2ccc(Cl)c3c2C(=O)N(c2ccc(F)nc2)C3=O)cc1 [Compound 187]
216	O=C1c2c(Cl)ccc(NS(=O)(=O)c3ccc(C(F)(F)F)cc3)c2C(=O)N1c1cncnc1 [Compound 140]
611	N#Cc1cccc(N2C(=O)c3cccc(NS(=O)(=O)c4ccc(C(F)(F)F)cc4)c3C2=O)c1 [Compound 39]
73	CC(C)(C)c1ccc(S(=O)(=O)Nc2ccc(Cl)c3c2C(=O)N(c2cncc(C#N)c2)C3=O)cc1 [Compound 177]
2710	O=C1c2cccc(NS(=O)(=O)c3cccc(C(F)(F)F)c3)c2C(=O)N1c1cccnc1 [Compound 4]
243	CC(C)c1ccc(S(=O)(=O)Nc2ccc(Cl)c3c2C(=O)N(c2cccc(C#N)c2)C3=O)cc1 [Compound 125]
173	CC(C)c1ccc(S(=O)(=O)Nc2ccc(Cl)c3c2C(=O)N(Cc2cccnc2)C3=O)cc1 [Compound 80]
187	O=C1c2c(Cl)ccc(NS(=O)(=O)c3ccc(OC(F)F)cc3)c2C(=O)N1c1cccnc1 [Compound 52]
206	O=C1c2cccc(NS(=O)(=O)c3ccc(Cl)c(C(F)(F)F)c3)c2C(=O)N1c1cccnc1 [Compound 7]
311	Cc1cncc(N2C(=O)c3c(Cl)ccc(NS(=O)(=O)c4ccc(C(C)C)cc4)c3C2=O)c1 [Compound 105]

Ki [nM]	SMILES
108	COc1cc(CN2C(=O)c3c(Cl)ccc(NS(=O)(=O)c4ccc(C(C)(C)C)cc4)c3C2=O)ccn1 [Compound 273]
167	N#Cc1cccc(N2C(=O)c3cccc(NS(=O)(=O)c4ccc(Cl)c(C(F)(F)F)c4)c3C2=O)c1 [Compound 41]
50	COc1cc(N2C(=O)c3c(Cl)ccc(NS(=O)(=O)c4ccc(C(C)(C)C)cc4)c3C2=O)c[n+]([O-])c1 [Compound 91, 3-(4-(4-(tert-butyl)phenylsulfonamido)-7-chloro-1,3-dioxoisoindolin-2-yl)-5-methoxypyridine 1-oxide]
1320	O=C1c2cccc(NS(=O)(=O)c3ccc(F)c(C(F)(F)F)c3)c2C(=O)N1c1cccnc1 [Compound 8]
1000	Cc1ccc(NS(=O)(=O)c2ccc(OC(F)(F)F)cc2)c2c1C(=O)N(Cc1cccnc1)C2=O [Compound 162]
217	COc1cncc(N2C(=O)c3c(Cl)ccc(NS(=O)(=O)c4ccc(Cl)c(C(F)(F)F)c4)c3C2=O)c1 [Compound 93]
37	CC(C)(C)c1ccc(S(=O)(=O)Nc2ccc(C#N)c3c2C(=O)N(Cc2ccc[n+]([O-])c2)C3=O)cc1 [Compound 280]
255	COc1cncc(N2C(=O)c3c(Cl)ccc(NS(=O)(=O)c4ccc(C(F)(F)F)cc4)c3C2=O)c1 [Compound 92]
41	COc1nc(C)ccc1CN1C(=O)c2c(Cl)ccc(NS(=O)(=O)c3ccc(C(C)(C)C)cc3)c2C1=O [Compound 253]
100	CC(C)(C)c1ccc(S(=O)(=O)Nc2ccc(Cl)c3c2C(=O)N(CCc2cccnc2)C3=O)cc1 [Compound 116, 4-(tert-butyl)-N-(7-chloro-1,3-dioxo-2-(2-(pyridin-3-yl)ethyl)isoindolin-4-yl)benzenesulfonamide]
104	Cn1cc(N2C(=O)c3c(Cl)ccc(NS(=O)(=O)c4ccc(C(C)(C)C)cc4)c3C2=O)c(C(=O)O)n1 [Compound 289]
38	CC(C)c1ccc(S(=O)(=O)Nc2ccc(Cl)c3c2C(=O)N(c2cccnc2)C3=O)cc1 [Compound 57]
46	Cc1ccc(N2C(=O)c3c(Cl)ccc(NS(=O)(=O)c4ccc(C(C)(C)C)cc4)c3C2=O)c[n+]1[O-] [Compound 205]
41	COc1ccc(N2C(=O)c3c(Cl)ccc(NS(=O)(=O)c4ccc(C(C)(C)C)cc4)c3C2=O)[n+]([O-])c1C [Compound 265]
64	Cn1cc(N2C(=O)c3c(Cl)ccc(NS(=O)(=O)c4ccc(C(F)(F)F)cc4)c3C2=O)cn1 [Compound 143]
252	N#Cc1cccc(CN2C(=O)c3c(Cl)ccc(NS(=O)(=O)c4ccc(Cl)c(C(F)(F)F)c4)c3C2=O)c1 [Compound 132]
78	COc1ccc(N2C(=O)c3c(Cl)ccc(NS(=O)(=O)c4ccc(C(C)(C)C)cc4)c3C2=O)cn1 [Compound 118, 4-(tert-butyl)-N-(7-chloro-2-(6-methoxypyridin-3-yl)-1,3-dioxoisoindolin-4-yl)benzenesulfonamide]
148	CC(C)(C#N)c1ccc(S(=O)(=O)Nc2ccc(Cl)c3c2C(=O)N(Cc2ccc[n+]([O-])c2)C3=O)cc1 [Compound 81]
33	CC(C)(C#N)c1ccc(S(=O)(=O)Nc2ccc(Cl)c3c2C(=O)N(Cc2cccnc2)C3=O)cc1 [Compound 79]

Ki [nM]	SMILES
42	CC(C)c1ccc(S(=O)(=O)Nc2ccc(Cl)c3c2C(=O)N(c2cn[nH]c2)C3=O)cc1 [Compound 151]
154	CC(C)(C)c1ccc(S(=O)(=O)Nc2ccc(Cl)c3c2C(=O)N(c2nccs2)C3=O)cc1 [Compound 146]
244	COc1cncc(N2C(=O)c3c(Cl)ccc(NS(=O)(=O)c4ccc(OC(F)(F)F)cc4)c3C2=O)c1 [Compound 94]
28	CC(C)(C)c1ccc(S(=O)(=O)Nc2ccc(C#N)c3c2C(=O)N(C2CCOCC2)C3=O)cc1 [Compound 277]
318	CC(C)(C)c1ccc(S(=O)(=O)Nc2ccc(Cl)c3c2C(=O)N(C(C)(C)c2cccnc2)C3=O)cc1 [Compound 107, 4-(tert-butyl)-N-(7-chloro-1,3-dioxo-2-(2-(pyridin-3-yl)propan-2-yl)isoindolin-4-yl)benzenesulfonamide]
84	Cc1cc(C)nc(N2C(=O)c3c(Cl)ccc(NS(=O)(=O)c4ccc(C(C)(C)C)cc4)c3C2=O)n1 [Compound 240]
41	Cn1cc(N2C(=O)c3c(Cl)ccc(NS(=O)(=O)c4ccc(C(C)(C)C)cc4)c3C2=O)cn1 [Compound 142]
70	Cc1ccc(CN2C(=O)c3c(Cl)ccc(NS(=O)(=O)c4ccc(C(C)(C)C)cc4)c3C2=O)c(C)n1 [Compound 248]
758	O=C1c2cccc(NS(=O)(=O)c3ccc(C(F)(F)F)cc3)c2C(=O)N1Cc1cccnc1 [Compound 19]
171	O=C1c2c(Cl)ccc(NS(=O)(=O)c3ccc(Cl)c(C(F)(F)F)c3)c2C(=O)N1c1cccnc1 [Compound 48]
123	O=C1c2cccc(NS(=O)(=O)c3ccc(OC(F)(F)F)cc3)c2C(=O)N1c1cccnc1 [Compound 5]
189	Cc1ccc(NS(=O)(=O)c2ccc(C(C)(C)C)cc2)c2c1C(=O)N(c1cccnc1)C2=O [Compound 157, 4-(tert-butyl)-N-(7-methyl-1,3-dioxo-2-(pyridin-3-yl)isoindolin-4-yl)benzenesulfonamide]
33	Cc1ccc(CN2C(=O)c3c(Cl)ccc(NS(=O)(=O)c4ccc(C(C)(C)C)cc4)c3C2=O)c(C)[n+]1[O-] [Compound 252]
164	CC(C)(C)c1ccc(S(=O)(=O)Nc2ccc(Cl)c3c2C(=O)N(c2cncs2)C3=O)cc1 [Compound 178]
245	O=C1c2c(Cl)ccc(NS(=O)(=O)c3ccc(OC(F)F)cc3)c2C(=O)N1c1cn[nH]c1 [Compound 152]
125	CCOc1nc(C)ccc1CN1C(=O)c2c(Cl)ccc(NS(=O)(=O)c3ccc(C(C)(C)C)cc3)c2C1=O [Compound 246]
85	Cc1ccc(CN2C(=O)c3c(Cl)ccc(NS(=O)(=O)c4ccc(C(C)(C)C)cc4)c3C2=O)cn1 [Compound 215]
153	CC(C)(C)c1ccc(S(=O)(=O)Nc2ccc(C#N)c3c2C(=O)N(Cc2cccc(C#N)c2)C3=O)cc1 [Compound 127, 4-(tert-butyl)-N-(7-cyano-2-(3-cyanobenzyl)-1,3-dioxoisoindolin-4-yl)benzenesulfonamide]
32	Cn1cnc(N2C(=O)c3c(Cl)ccc(NS(=O)(=O)c4ccc(C(F)(F)F)cc4)c3C2=O)c1 [Compound 154]
